Test results published in PubChem BioAssay (NCI).
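Method: 48-hour compound exposure of cells in 96-well plates, five concentrations, linear interpolation of endpoints. Definition used: TGI = concentration required for complete inhibition of growth.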

Experiments:
Test in all cases: growth of human tumour cells (NCI), 48 h
[1] = tested on: 786-0 renal
[2] = tested on: A498 renal
[3] = tested on: A549 NSCLC
[4] = tested on: ACHN renal
[5] = tested on: CAKI-1 renal
[6] = tested on: CCRF-CEM leukemia
[7] = tested on: COLO 205 colon
[8] = tested on: DLD-1 colon
[9] = tested on: DMS 114 small cell lung
[10] = tested on: DMS 273 small cell lung
[11] = tested on: EKVX NSCLC
[12] = tested on: HL-60(TB) leukemia
[13] = tested on: HOP-62 NSCLC
[14] = tested on: HOP-92 NSCLC
[15] = tested on: HT29 colon
[16] = tested on: K-562 leukemia
[17] = tested on: KM12 colon
[18] = tested on: KM20L2 colon
[19] = tested on: LOX IMVI melanoma
[20] = tested on: LXFL 529 NSCLC
[21] = tested on: M19-MEL melanoma
[22] = tested on: MALME-3M melanoma
[23] = tested on: MOLT-4 leukemia
[24] = tested on: NCI-H226 lung
[25] = tested on: NCI-H23 lung
[26] = tested on: NCI-H460 lung
[27] = tested on: NCI-H522 lung
[28] = tested on: OVCAR-4 ovarian
[29] = tested on: OVCAR-5 ovarian
[30] = tested on: OVCAR-8 ovarian
[31] = tested on: RXF 393 renal
[32] = tested on: SF-268 CNS
[33] = tested on: SF-295 CNS
[34] = tested on: SF-539 CNS
[35] = tested on: SK-MEL-2 melanoma
[36] = tested on: SK-MEL-28 melanoma
[37] = tested on: SK-MEL-5 melanoma
[38] = tested on: SK-OV-3 ovarian
[39] = tested on: SN12C renal
[40] = tested on: SNB-19 CNS
[41] = tested on: SNB-78 CNS
[42] = tested on: SR leukemia
[43] = tested on: SW-620 colon
[44] = tested on: TK-10 renal
[45] = tested on: U251 CNS
[46] = tested on: UACC-257 melanoma
[47] = tested on: UACC-62 melanoma
[48] = tested on: UO-31 renal
[49] = tested on: XF 498 CNS

Measured: TGI

CC(C)CN1CC(C)C(=O)NC1=O (centres undefined)
> 100 µM: [1] | [2] | [3] | [4] | [5] | [6] | [7] | [8] | [9] | [10] | [11] | [12] | [13] | [14] | [15] | [16] | [17] | [18] | [19] | [20] | [21] | [22] | [23] | [24] | [25] | [26] | [27] | [28] | [29] | [30] | [31] | [32] | [33] | [34] | [35] | [36] | [37] | [38] | [39] | [40] | [41] | [42] | [43] | [44] | [45] | [46] | [47] | [48] | [49]
